According to patent US20250205344A1, “2,4-DIOXOTETRAHYDROPYRIMIDINYL DERATIVES AS DEGRONS IN PROTACS” (GLAXOSMITHKLINE INTELLECTUAL PROPERTY DEVELOPMENT LIMITED, priority 2022, published 2025):
Counter-ions that a name gives are not always drawn.

Experiments:
[1] = target: T1, Androgen Receptor dual T878A/L702H mutant protein (Homo sapiens, UniProt P10275, L702H/T878A); assay: Dual Mutant (T878A/L702H) Androgen Receptor Degradation Assay (HTRF); type: cell-based; details: MDA-PCa-2b, 18 h, human MDA PCa 2b cells, read-out: mean asymptote max
T1 construct: Androgen Receptor dual T878A/L702H mutant protein in human MDA PCa 2b (ATCC, #CRL-2422) cells; host or cells: MDA PCa 2b
T1 sequence (P10275 1-920 L702H/T878A): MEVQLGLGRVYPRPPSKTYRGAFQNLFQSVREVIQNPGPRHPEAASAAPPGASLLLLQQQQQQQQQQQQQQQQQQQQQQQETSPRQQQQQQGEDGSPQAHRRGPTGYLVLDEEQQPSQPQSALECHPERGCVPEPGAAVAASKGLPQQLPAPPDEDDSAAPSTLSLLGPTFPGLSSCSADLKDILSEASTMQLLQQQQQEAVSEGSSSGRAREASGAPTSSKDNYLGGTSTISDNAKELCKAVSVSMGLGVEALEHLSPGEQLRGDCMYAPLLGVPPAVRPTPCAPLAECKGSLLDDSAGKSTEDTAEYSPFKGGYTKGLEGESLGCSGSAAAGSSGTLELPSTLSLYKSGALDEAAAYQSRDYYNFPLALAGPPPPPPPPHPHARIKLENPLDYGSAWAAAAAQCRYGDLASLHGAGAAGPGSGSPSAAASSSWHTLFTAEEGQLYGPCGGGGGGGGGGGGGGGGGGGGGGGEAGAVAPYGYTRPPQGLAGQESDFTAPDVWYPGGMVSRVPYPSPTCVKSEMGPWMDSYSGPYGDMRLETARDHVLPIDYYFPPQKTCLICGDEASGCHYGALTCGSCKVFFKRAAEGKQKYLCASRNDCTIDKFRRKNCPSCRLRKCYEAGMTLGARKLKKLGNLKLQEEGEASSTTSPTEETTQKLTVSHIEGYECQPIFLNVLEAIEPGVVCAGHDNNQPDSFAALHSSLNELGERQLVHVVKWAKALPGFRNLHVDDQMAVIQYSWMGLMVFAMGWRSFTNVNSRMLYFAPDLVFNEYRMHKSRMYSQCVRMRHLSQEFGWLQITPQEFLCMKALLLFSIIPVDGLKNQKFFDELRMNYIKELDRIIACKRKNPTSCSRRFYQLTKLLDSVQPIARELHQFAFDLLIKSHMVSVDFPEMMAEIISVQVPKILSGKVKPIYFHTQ
Protocol: Degradation of Androgen Receptor dual T878A/L702H mutant protein in human MDA PCa 2b (ATCC, #CRL-2422) cells treated with PROTACs was quantified using the HTRF Human Androgen Receptor Detection Kit (PerkinElmer, #64ANDRPEH) in 384 well assay plate format. 10 mM DMSO(Sigma-Aldrich, #472301) stock solutions of PROTACs were prepared and diluted across an 11 concentration, 3-fold increment range, and 25 nL dispensed into a white opaque bottomed 384 well assay plate (Thermofisher, #164610) using an acoustic ECHO dispenser (Labcyte). Cells were cultured in growth medium (BRFF-HPC-1 (Athena ES, #0403) supplemented with 20% FBS (Gibco, #10099-141), penicillin 50 U/mL and streptomycin 50 ug/mL (Gibco, #15140-122)) in collagen I or poly-D-lysine coated T175 flasks (Corning, #356487 or #356539, respectively). For the assay, cells were harvested from the flask, centrifuged at 200 g for 5 min and then resuspended in the growth medium. 25 μl of cell suspension containing 10,000 cells was dispensed into each well of the assay plate containing the test compounds, which was then incubated for 18 h at 37° C./5% CO2. Control wells were included on each assay plate, with assay medium without cells being the no AR remaining 100% effect control, and cells treated with DMSO vehicle only, without PROTAC, the 0% effect control. After 18 h incubation 8 μl of supplemented lysis buffer from HTRF kit was added to each well and the plate shaken at 500 rpm for 1 h at room temperature. 8 μl of antibody mix in Detection buffer from HTRF kit was added to each well and the plate was incubated for 2 h in dark at room temperature. The fluorescence was measured at both 620 nm and 665 nm using an excitation wavelength of 337 nm with a PHERAstar microplate reader (BMG Labtech) and the % AR protein remaining in each well was calculated by normalising the HTRF ratio (665 nm signal/620 nm signal) value to the control wells mentioned above. Parameters corresponding to the potency and efficacy estimates of the PROTACs were obtained from these normalised values using curve fitting software (IDBS ActivityBase). These included the DC50 and the Dmax estimates. Two versions of the DC50, called relative DC50 and absolute DC50, were typically generated. These are the inflection point of a fitted 4 parameter sigmoidal response curve and the interpolated concentration of PROTAC corresponding to 50% of the protein being degraded, respectively. The Dmax parameter was the maximum experimentally observed degradation and the asymptote max parameter the fitted response curve asymptote maximum.

[2] = target: T2, Androgen Receptor (Homo sapiens, UniProt P10275, T878A); assay: Androgen Receptor Degradation Assay (Nano-Glo HiBiT); type: cell-based; details: LNCaP, 18 h, HiBiT-tagged AR in human LnCaP cells, read-out: mean asymptote max
T2 construct: the AR gene was modified, using CRISPR/Cas9 editing, so the expressed AR protein included an 11 amino acid HiBiT tag; endogenous in cells; host or cells: clonal LnCaP-derived line, AR gene edited by CRISPR/Cas9
T2 sequence (P10275 whole entry T878A): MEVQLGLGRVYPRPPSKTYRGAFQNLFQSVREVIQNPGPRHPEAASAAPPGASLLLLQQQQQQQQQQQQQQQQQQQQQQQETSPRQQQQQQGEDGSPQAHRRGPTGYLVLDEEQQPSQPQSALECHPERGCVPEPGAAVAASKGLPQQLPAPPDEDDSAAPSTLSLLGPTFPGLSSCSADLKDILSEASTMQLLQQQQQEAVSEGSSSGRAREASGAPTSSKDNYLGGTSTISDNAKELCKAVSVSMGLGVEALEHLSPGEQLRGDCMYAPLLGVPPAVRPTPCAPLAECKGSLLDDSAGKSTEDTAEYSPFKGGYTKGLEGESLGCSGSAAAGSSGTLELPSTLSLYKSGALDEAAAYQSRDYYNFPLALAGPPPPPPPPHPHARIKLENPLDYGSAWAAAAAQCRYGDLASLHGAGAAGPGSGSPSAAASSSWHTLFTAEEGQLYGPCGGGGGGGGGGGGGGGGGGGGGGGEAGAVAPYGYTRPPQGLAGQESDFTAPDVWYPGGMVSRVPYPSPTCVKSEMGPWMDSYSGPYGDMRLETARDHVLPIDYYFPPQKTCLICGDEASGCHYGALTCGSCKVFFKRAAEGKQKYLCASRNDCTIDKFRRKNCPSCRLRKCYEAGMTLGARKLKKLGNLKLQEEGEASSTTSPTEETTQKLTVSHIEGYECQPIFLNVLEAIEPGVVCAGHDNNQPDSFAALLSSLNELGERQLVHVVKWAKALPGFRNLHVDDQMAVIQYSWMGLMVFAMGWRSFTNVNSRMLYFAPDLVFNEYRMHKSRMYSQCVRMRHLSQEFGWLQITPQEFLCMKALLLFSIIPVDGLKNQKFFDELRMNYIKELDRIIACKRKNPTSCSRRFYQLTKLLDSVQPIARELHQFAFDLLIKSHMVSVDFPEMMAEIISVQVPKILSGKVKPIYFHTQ
T2 sequence (Q96SW2 whole entry partner): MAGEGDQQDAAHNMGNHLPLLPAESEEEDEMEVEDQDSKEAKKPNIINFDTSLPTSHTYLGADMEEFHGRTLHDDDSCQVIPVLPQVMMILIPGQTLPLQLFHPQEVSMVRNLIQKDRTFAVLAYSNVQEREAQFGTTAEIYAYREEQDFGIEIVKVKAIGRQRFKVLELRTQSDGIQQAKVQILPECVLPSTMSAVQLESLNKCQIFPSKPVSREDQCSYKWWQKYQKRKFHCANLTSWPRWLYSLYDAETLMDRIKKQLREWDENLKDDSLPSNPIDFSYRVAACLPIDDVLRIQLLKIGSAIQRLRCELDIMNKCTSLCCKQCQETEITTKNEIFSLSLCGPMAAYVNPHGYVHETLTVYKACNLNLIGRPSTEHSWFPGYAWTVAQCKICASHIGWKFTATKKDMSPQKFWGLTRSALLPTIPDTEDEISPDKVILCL
T2 sequence (Q16531 whole entry partner): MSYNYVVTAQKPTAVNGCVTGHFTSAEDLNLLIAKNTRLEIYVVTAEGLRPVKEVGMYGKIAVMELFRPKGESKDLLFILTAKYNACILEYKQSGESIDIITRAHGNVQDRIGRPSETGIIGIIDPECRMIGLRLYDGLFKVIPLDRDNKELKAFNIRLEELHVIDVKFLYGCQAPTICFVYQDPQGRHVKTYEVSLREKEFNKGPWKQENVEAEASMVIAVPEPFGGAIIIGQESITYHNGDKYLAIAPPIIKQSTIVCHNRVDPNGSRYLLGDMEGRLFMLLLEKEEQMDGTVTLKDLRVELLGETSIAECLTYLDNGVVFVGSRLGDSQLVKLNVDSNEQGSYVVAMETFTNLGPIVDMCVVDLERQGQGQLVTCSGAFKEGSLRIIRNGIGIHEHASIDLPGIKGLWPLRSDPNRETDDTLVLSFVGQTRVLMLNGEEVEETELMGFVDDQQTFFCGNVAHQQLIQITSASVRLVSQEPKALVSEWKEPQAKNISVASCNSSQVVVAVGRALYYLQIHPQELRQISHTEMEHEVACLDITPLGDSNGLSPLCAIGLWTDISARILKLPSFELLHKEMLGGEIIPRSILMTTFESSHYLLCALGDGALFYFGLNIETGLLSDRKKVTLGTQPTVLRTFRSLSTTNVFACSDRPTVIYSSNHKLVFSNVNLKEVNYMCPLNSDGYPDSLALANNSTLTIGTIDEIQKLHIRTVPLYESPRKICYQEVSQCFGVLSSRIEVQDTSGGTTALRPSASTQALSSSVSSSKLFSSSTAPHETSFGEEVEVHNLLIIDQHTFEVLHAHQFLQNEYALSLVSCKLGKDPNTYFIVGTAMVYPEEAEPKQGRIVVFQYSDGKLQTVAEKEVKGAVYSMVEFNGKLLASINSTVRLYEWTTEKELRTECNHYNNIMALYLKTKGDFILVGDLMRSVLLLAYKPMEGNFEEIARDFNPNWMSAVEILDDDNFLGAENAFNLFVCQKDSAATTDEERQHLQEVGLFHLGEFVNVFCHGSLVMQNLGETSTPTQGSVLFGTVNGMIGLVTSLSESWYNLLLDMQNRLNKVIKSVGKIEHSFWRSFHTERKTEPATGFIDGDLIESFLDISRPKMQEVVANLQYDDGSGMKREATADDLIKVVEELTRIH
Summary of the method: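 LnCaP cells with CRISPR-knocked-in N-terminal HiBiT-tagged AR (10,000/well) treated 18 h at 37 °C with PROTACs over 11 threefold concentrations; lytic HiBiT luminescence normalised to DMSO (0%) and cell-free (100%) controls. Relative DC50 = 4-parameter fit inflection; absolute DC50 = 50% degradation interpolation; Dmax = maximum observed degradation.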

SMILES | Dmax [1] [%] | Dmax [2] [%]
CC1(C)[C@H](NC(=O)c2ccc(N3CCC(CN4CCC(n5ncc6c(N7CCC(=O)NC7=O)cccc65)CC4)CC3)nc2)C(C)(C)[C@H]1Oc1ccc(C#N)c(Cl)c1 [AR41, N-((1r,3r)-3-(3-Chloro-4-cyanophenoxy)-2,2,4,4-tetramethylcyclobutyl)-6-(4-((4-(4-(2,4-dioxotetrahydropyrimidin-1(2H)-yl)-1H-indazol-1-yl)piperidin-1-yl)methyl)piperidin-1-yl)nicotinamide hydrochloride] | ≥ 55 | ≥ 50
CC1(C)[C@H](NC(=O)c2cnc(N3CCC(CN4CCC(n5ccc6c(N7CCC(=O)NC7=O)cncc65)CC4)CC3)cn2)C(C)(C)[C@H]1Oc1ccc(C#N)c(Cl)c1 [AR14, N-((1r,3r)-3-(3-Chloro-4-cyanophenoxy)-2,2,4,4-tetramethylcyclobutyl)-5-(4-((4-(4-(2,4-dioxotetrahydropyrimidin-1(2H)-yl)-1H-pyrrolo[2,3-c]pyridin-1-yl)piperidin-1-yl)methyl)piperidin-1-yl)pyrazine-2-carboxamide] | ≥ 55 | ≥ 50
CC1(C)[C@H](NC(=O)c2cnc(N3CCC(C(=O)N4CCC(n5ccc6c(N7CCC(=O)NC7=O)cccc65)CC4)CC3)nc2)C(C)(C)[C@H]1Oc1ccc(C#N)c(Cl)c1 [AR67, N-((1r,3r)-3-(3-Chloro-4-cyanophenoxy)-2,2,4,4-tetramethylcyclobutyl)-2-(4-(4-(4-(2,4-dioxotetrahydropyrimidin-1(2H)-yl)-1H-indol-1-yl)piperidine-1-carbonyl)piperidin-1-yl)pyrimidine-5-carboxamide] | ≥ 55 | ≥ 50
CC1(C)[C@H](NC(=O)c2ccc(N3CCC(CN4CCC(n5ccc6c(N7CCC(=O)NC7=O)cccc65)CC4)CC3)nc2)C(C)(C)[C@H]1Oc1ccc(C#N)c(Cl)c1 [EAR29, N-((1r,3r)-3-(3-chloro-4-cyanophenoxy)-2,2,4,4-tetramethylcyclobutyl)-6-(4-((4-(4-(2,4-dioxotetrahydropyrimidin-1(2H)-yl)-1H-indol-1-yl)piperidin-1-yl)methyl)piperidin-1-yl)nicotinamide formate] | ≥ 55 | ≥ 50
CC1(C)[C@H](NC(=O)c2ccc(N3CCC(CN4CCC(n5ccc6c(N7CCC(=O)NC7=O)ncnc65)CC4)CC3)nn2)C(C)(C)[C@H]1Oc1ccc(C#N)c(Cl)c1 [AR247, N-((1r,3r)-3-(3-Chloro-4-cyanophenoxy)-2,2,4,4-tetramethylcyclobutyl)-6-(4-((4-(4-(2,4-dioxotetrahydropyrimidin-1(2H)-yl)-7H-pyrrolo[2,3-d]pyrimidin-7-yl)piperidin-1-yl)methyl)piperidin-1-yl)pyridazine-3-carboxamide] | ≥ 55 | ≥ 50
CC1(C)[C@H](NC(=O)c2ccc(N3CCC(CN4CCC(n5ncc6c(N7CCC(=O)NC7=O)cccc65)CC4)CC3)nn2)C(C)(C)[C@H]1Oc1ccc(C#N)c2ncccc12 [AR246, N-((1r,3r)-3-((8-Cyanoquinolin-5-yl)oxy)-2,2,4,4-tetramethylcyclobutyl)-6-(4-((4-(4-(2,4-dioxotetrahydropyrimidin-1(2H)-yl)-1H-indazol-1-yl)piperidin-1-yl)methyl)piperidin-1-yl)pyridazine-3-carboxamide] | ≥ 55 | ≥ 50

Now from value to molecule:

Dmax [1] [%] | Dmax [2] [%] | SMILES
≥ 55 | ≥ 50 | CC1(C)[C@H](NC(=O)c2ccc(CCCCCCN3CCC(n4ccc5c(N6CCC(=O)NC6=O)cccc54)CC3)cc2)C(C)(C)[C@H]1Oc1ccc(C#N)c(C(F)(F)F)c1 [EAR75, N-((1r,3r)-3-(4-Cyano-3-(trifluoromethyl)phenoxy)-2,2,4,4-tetramethylcyclobutyl)-4-(6-(4-(4-(2,4-dioxotetrahydropyrimidin-1(2H)-yl)-1H-indol-1-yl)piperidin-1-yl)hexyl)benzamide]
≥ 55 | ≥ 50 | CC1(C)[C@H](NC(=O)c2cnc(N3CCC(CN4CCC(n5ncc6c(N7CCC(=O)NC7=O)cccc65)CC4)CC3)cn2)C(C)(C)[C@H]1Oc1ccc(C#N)c(Cl)c1 [EAR37, N-((1r,3r)-3-(3-Chloro-4-cyanophenoxy)-2,2,4,4-tetramethylcyclobutyl)-5-(4-((4-(4-(2,4-dioxotetrahydropyrimidin-1(2H)-yl)-1H-indazol-1-yl)piperidin-1-yl)methyl)piperidin-1-yl)pyrazine-2-carboxamide hydrochloride]
≥ 55 | ≥ 50 | CC1(C)[C@H](NC(=O)c2ccc(N3CCC(CN4CCC(n5ccc6c(N7CCC(=O)NC7=O)nccc65)CC4)CC3)nn2)C(C)(C)[C@H]1Oc1ccc(C#N)c2ncccc12 [EAR251, N-((1r,3r)-3-((8-Cyanoquinolin-5-yl)oxy)-2,2,4,4-tetramethylcyclobutyl)-6-(4-((4-(4-(2,4-dioxotetrahydropyrimidin-1(2H)-yl)-1H-pyrrolo[3,2-c]pyridin-1-yl)piperidin-1-yl)methyl)piperidin-1-yl)pyridazine-3-carboxamide hydrochloride]
≥ 55 | ≥ 50 | CC1(C)[C@H](NC(=O)c2cnc(N3CCC(CN4CCC(n5ccc6c(N7CCC(=O)NC7=O)cncc65)CC4)CC3)nc2)C(C)(C)[C@H]1Oc1ccc(C#N)c(Cl)c1 [EAR18, N-((1r,3r)-3-(3-Chloro-4-cyanophenoxy)-2,2,4,4-tetramethylcyclobutyl)-2-(4-((4-(4-(2,4-dioxotetrahydropyrimidin-1(2H)-yl)-1H-pyrrolo[2,3-c]pyridin-1-yl)piperidin-1-yl)methyl)piperidin-1-yl)pyrimidine-5-carboxamide]
